According to PubChem BioAssay AID248 (DTP/NCI, 2004):
Toxic doses and inconclusive results are not listed.

Tested on: L1210 leukemia ip in BDF1 mice, survival T/C
Test: NCI In Vivo Anticancer Drug Screen. Data for tumor model L1210 Leukemia (intraperitoneal) in B6D2F1 (BDF1) mice
Settings: endpoint: mean survival time, higher = longer survival
Summary of the method: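 Transplantable tumor model; survival measured in treated vs vehicle control mice. Value = treated/control.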

[1] = dose: 100.0 mg/kg/injection, schedule: Q01DX001 (ip), vehicle: saline
[2] = dose: 200.0 mg/kg/injection, schedule: Q01DX001 (ip), vehicle: saline
[3] = dose: 100.0 mg/kg/injection, schedule: Q04DX003 (ip), vehicle: Klucel (hydroxypropylcellulose) (HPC)
[4] = dose: 100.0 mg/kg/injection, schedule: Q01DX009 (ip), vehicle: Klucel (hydroxypropylcellulose) (HPC)
[5] = dose: 200.0 mg/kg/injection, schedule: Q01DX009 (ip), vehicle: Klucel (hydroxypropylcellulose) (HPC)
[6] = dose: 200.0 mg/kg/injection, schedule: Q04DX003 (ip), vehicle: Klucel (hydroxypropylcellulose) (HPC)
[7] = dose: 400.0 mg/kg/injection, schedule: Q01DX009 (ip), vehicle: Klucel (hydroxypropylcellulose) (HPC)
[8] = dose: 400.0 mg/kg/injection, schedule: Q04DX003 (ip), vehicle: Klucel (hydroxypropylcellulose) (HPC)

For COc1cc(C(=O)Cl)cc(OC)c1OC(C)=O, the T/C [1] was 93 % of control, the T/C [2] was 89 % of control and the T/C (dose: 400.0 mg/kg/injection, schedule: Q01DX001 (ip), vehicle: saline) was 91 % of control.

In the case of CCCC1(C)NC(=O)NC1=O (centres undefined), the T/C (dose: 100.0 mg/kg/injection, schedule: Q01DX009 (ip), vehicle: saline with Tween-80) is reported as 97 % of control, the T/C (dose: 100.0 mg/kg/injection, schedule: Q04DX003 (ip), vehicle: saline with Tween-80) is reported as 110 % of control and the T/C (dose: 200.0 mg/kg/injection, schedule: Q01DX009 (ip), vehicle: saline with Tween-80) is reported as 98 % of control. The T/C (dose: 200.0 mg/kg/injection, schedule: Q04DX003 (ip), vehicle: saline with Tween-80) was 104 % of control, the T/C (dose: 400.0 mg/kg/injection, schedule: Q01DX009 (ip), vehicle: saline with Tween-80) was 93 % of control and the T/C (dose: 400.0 mg/kg/injection, schedule: Q04DX003 (ip), vehicle: saline with Tween-80) was 102 % of control.

With Nc1nc(N)c(-c2ccc(Cl)c(Cl)c2)c(COc2ccc(NC(=O)Nc3ccc(S(=O)(=O)F)c(Cl)c3)c(Cl)c2)n1 the T/C (dose: 75.0 mg/kg/injection, schedule: Q01DX001 (ip), vehicle: saline with Tween-80) was 90 % of control and the T/C (dose: 150.0 mg/kg/injection, schedule: Q01DX001 (ip), vehicle: saline with Tween-80) was 98 % of control.

In the case of COc1ccc(/C=C/[N+](=O)[O-])cc1, the T/C (dose: 6.25 mg/kg/injection, schedule: Q04DX002 (ip), vehicle: saline with Tween-80) is reported as 97 % of control, the T/C (dose: 12.5 mg/kg/injection, schedule: Q04DX002 (ip), vehicle: saline with Tween-80) is reported as 93 % of control and the T/C (dose: 25.0 mg/kg/injection, schedule: Q04DX002 (ip), vehicle: other) is reported as 96 % of control. The T/C (dose: 25.0 mg/kg/injection, schedule: Q04DX002 (ip), vehicle: saline with Tween-80) was 89 % of control, the T/C (dose: 25.0 mg/kg/injection, schedule: Q04DX003 (ip), vehicle: Klucel (hydroxypropylcellulose) (HPC)) was 100 % of control and the T/C (dose: 50.0 mg/kg/injection, schedule: Q04DX003 (ip), vehicle: Klucel (hydroxypropylcellulose) (HPC)) was 103 % of control. For the same compound, the T/C [3] was 95 % of control.

In the case of [N-]=[N+]=CC(=O)CCC(N)C(=O)O (centres undefined), the T/C (dose: 0.01 mg/kg/injection, schedule: Q01DX015 (ip), vehicle: water) is reported as 101 % of control, the T/C (dose: 0.03 mg/kg/injection, schedule: Q01DX015 (ip), vehicle: water) is reported as 118 % of control and the T/C (dose: 0.05 mg/kg/injection, schedule: Q01DX009 (ip), vehicle: saline) is reported as 118 % of control. For the same compound, the T/C (dose: 0.06 mg/kg/injection, schedule: Q01DX009 (oral), vehicle: saline) was 114 % of control, the T/C (dose: 0.1 mg/kg/injection, schedule: Q01DX015 (ip), vehicle: other) was 168 % of control and the T/C (dose: 0.1 mg/kg/injection, schedule: Q01DX015 (ip), vehicle: water) was 154 % of control. For the same compound, the T/C (dose: 0.2 mg/kg/injection, schedule: Q01DX009 (ip), vehicle: saline) was 120 % of control, the T/C (dose: 0.2 mg/kg/injection, schedule: Q01DX009 (oral), vehicle: saline) was 150 % of control and the T/C (dose: 0.2 mg/kg/injection, schedule: Q01DX015 (ip), vehicle: other) was 210 % of control. The T/C (dose: 0.2 mg/kg/injection, schedule: Q01DX015 (ip), vehicle: water) was 156 % of control, the T/C (dose: 0.25 mg/kg/injection, schedule: Q01DX009 (oral), vehicle: saline) was 164 % of control and the T/C (dose: 0.39 mg/kg/injection, schedule: Q03HX016 (ip), vehicle: saline) was 150 % of control. For the same compound, the T/C (dose: 0.39 mg/kg/injection, schedule: Q03HX024 (ip), vehicle: saline) was 184 % of control, the T/C (dose: 0.4 mg/kg/injection, schedule: Q01DX009 (ip), vehicle: saline) was 104 % of control and the T/C (dose: 0.4 mg/kg/injection, schedule: Q01DX015 (ip), vehicle: water) was 218 % of control. The T/C (dose: 0.4 mg/kg/injection, schedule: Q02DX005 (oral), vehicle: saline) was 162 % of control, the T/C (dose: 0.6 mg/kg/injection, schedule: Q01DX015 (ip), vehicle: water) was 168 % of control and the T/C (dose: 0.63 mg/kg/injection, schedule: Q02DX008 (ip), vehicle: water) was 156 % of control. The T/C (dose: 0.78 mg/kg/injection, schedule: Q03HX016 (ip), vehicle: saline) was 165 % of control, the T/C (dose: 0.78 mg/kg/injection, schedule: Q03HX024 (ip), vehicle: saline) was 194 % of control and the T/C (dose: 0.8 mg/kg/injection, schedule: Q02DX005 (oral), vehicle: saline) was 150 % of control. For the same compound, the T/C (dose: 1.25 mg/kg/injection, schedule: Q02DX008 (ip), vehicle: water) was 180 % of control, the T/C (dose: 1.25 mg/kg/injection, schedule: Q02DX008 (oral), vehicle: water) was 162 % of control and the T/C (dose: 1.56 mg/kg/injection, schedule: Q03HX016 (ip), vehicle: saline) was 160 % of control. For the same compound, the T/C (dose: 1.56 mg/kg/injection, schedule: Q03HX024 (ip), vehicle: saline) was 174 % of control, the T/C (dose: 1.6 mg/kg/injection, schedule: Q02DX005 (oral), vehicle: saline) was 167 % of control and the T/C (dose: 2.5 mg/kg/injection, schedule: Q02DX008 (ip), vehicle: other) was 187 % of control. For the same compound, the T/C (dose: 2.5 mg/kg/injection, schedule: Q02DX008 (oral), vehicle: other) was 156 % of control, the T/C (dose: 2.5 mg/kg/injection, schedule: Q02DX008 (oral), vehicle: water) was 205 % of control and the T/C (dose: 3.12 mg/kg/injection, schedule: Q03HX024 (ip), vehicle: saline) was 90 % of control. For the same compound, the T/C (dose: 3.12 mg/kg/injection, schedule: Q04DX003 (ip), vehicle: saline) was 150 % of control, the T/C (dose: 3.2 mg/kg/injection, schedule: Q02DX005 (oral), vehicle: saline) was 153 % of control and the T/C (dose: 5.0 mg/kg/injection, schedule: Q02DX008 (ip), vehicle: other) was 216 % of control. The T/C (dose: 5.0 mg/kg/injection, schedule: Q02DX008 (oral), vehicle: other) was 169 % of control, the T/C (dose: 6.25 mg/kg/injection, schedule: Q04DX003 (ip), vehicle: saline) was 170 % of control and the T/C (dose: 6.4 mg/kg/injection, schedule: Q02DX005 (oral), vehicle: saline) was 179 % of control. For the same compound, the T/C (dose: 10.0 mg/kg/injection, schedule: Q02DX008 (oral), vehicle: other) was 205 % of control, the T/C (dose: 12.5 mg/kg/injection, schedule: Q04DX003 (ip), vehicle: saline) was 181 % of control and the T/C (dose: 12.5 mg/kg/injection, schedule: Q08DX002 (ip), vehicle: saline) was 150 % of control. The T/C (dose: 12.8 mg/kg/injection, schedule: Q02DX005 (oral), vehicle: saline) was 185 % of control, the T/C (dose: 15.0 mg/kg/injection, schedule: Q02DX008 (ip), vehicle: other) was 104 % of control and the T/C (dose: 15.0 mg/kg/injection, schedule: Q02DX008 (oral), vehicle: other) was 184 % of control. The T/C (dose: 20.0 mg/kg/injection, schedule: Q02DX008 (oral), vehicle: other) was 197 % of control, the T/C (dose: 25.0 mg/kg/injection, schedule: Q01DX001 (ip), vehicle: water) was 123 % of control and the T/C (dose: 25.0 mg/kg/injection, schedule: Q08DX002 (ip), vehicle: saline) was 151 % of control. For the same compound, the T/C (dose: 25.0 mg/kg/injection, schedule: Q## X003 (ip), vehicle: saline) was 167 % of control, the T/C (dose: 26.0 mg/kg/injection, schedule: Q02DX005 (oral), vehicle: saline) was 187 % of control and the T/C (dose: 50.0 mg/kg/injection, schedule: Q## X002 (ip), vehicle: saline) was 165 % of control. For the same compound, the T/C (dose: 50.0 mg/kg/injection, schedule: Q## X016 (ip), vehicle: saline) was 98 % of control, the T/C [1] was 156 % of control and the T/C (dose: 100.0 mg/kg/injection, schedule: Q## X002 (ip), vehicle: saline) was 168 % of control. The T/C (dose: 100.0 mg/kg/injection, schedule: Q## X003 (ip), vehicle: saline) was 92 % of control, the T/C (dose: 150.0 mg/kg/injection, schedule: Q01DX001 (ip), vehicle: water) was 159 % of control and the T/C [2] was 110 % of control. For the same compound, the T/C (dose: 200.0 mg/kg/injection, schedule: Q01DX001 (ip), vehicle: water) was 151 % of control, the T/C (dose: 200.0 mg/kg/injection, schedule: Q## X002 (ip), vehicle: saline) was 97 % of control and the T/C (dose: 400.0 mg/kg/injection, schedule: Q## X002 (ip), vehicle: saline) was 89 % of control. The T/C (dose: 25.0 micrograms/kg/injection, schedule: Q01DX010 (ip), vehicle: saline) was 98 % of control and the T/C (dose: 50.0 micrograms/kg/injection, schedule: Q01DX010 (ip), vehicle: saline) was 112 % of control.

O=c1c2ccccc2[nH]c(=S)n1C1CCCCC1 was tested, and the T/C [4] was 99 % of control, the T/C [3] was 90 % of control and the T/C [5] was 103 % of control. The T/C [6] was 101 % of control, the T/C [7] was 98 % of control and the T/C [8] was 100 % of control.

With Brc1ccc2c(c1)oc1ccccc12 the T/C [4] was 102 % of control, the T/C [3] was 105 % of control and the T/C [5] was 97 % of control. The T/C [6] was 107 % of control, the T/C [7] was 100 % of control and the T/C [8] was 91 % of control.
